Literature values as cited in paper PMC12308805, “Ultrahigh-Throughput Virtual Screening Strategies against PPI Targets: A Case Study of STAT Inhibitors” (Journal of Chemical Information and Modeling, 2025).
Square brackets hold non-standard residues; d marks the D form. Peptide text beside a SMILES is read from it. * marks the point of attachment. d(pY) = N[C@H](Cc1ccc(OP(=O)(O)O)cc1)C(=O)O; pY = N[C@@H](Cc1ccc(OP(=O)(O)O)cc1)C(=O)O; Hydrocinnamoyl = O=C(CCc1ccccc1)*; aThr = C[C@H](O)[C@H](N)C(=O)O

System: STAT3
Details: cited from earlier work

| Compound | Type (known STAT3 active) |
| --- | --- |
| CC(=O)N[C@@H](Cc1ccc(OP(=O)(O)O)cc1)C(=O)N[C@@H](CC(C)C)C(=O)N1CCC[C@H]1C(=O)N[C@@H](CCC(N)=O)C(=O)N[C@H](C(N)=O)[C@H](C)O [CHEMBL505076] (Ac-[pY]LPQ[aThr]-NH2) | Active |

Same assay, conditions: sheet 6QHD_actives_decoys, retrospective screening set for STAT3 SH2 domain (PDB 6QHD); decoys are presumed inactives, not tested; ref DUD-E; cited from earlier work

| Compound | Type |
| --- | --- |
| CC(/C=C/C=C(\C)C(=O)O)=C\C=C\C=C(C)\C=C\C=C(/C)C(=O)O[C@@H]1O[C@H](CO[C@@H]2O[C@H](CO)[C@@H](O)[C@H](O)[C@H]2O)[C@@H](O)[C@H](O)[C@H]1O [Decoy785] | Inactive (Decoy) |
| CC(=O)SCCNC(=O)CCNC(=O)[C@@H](O)C(C)(C)CO[P@](=O)(O)O[P@](=O)(O)OC[C@H]1O[C@@H](n2cnc3c(N)ncnc32)[C@@H](O)[C@H]1OP(=O)(O)O [Decoy854] | Inactive (Decoy) |
| COc1cc(NC(=O)CCSc2nnc(N/N=C/c3c(O)ccc4ccccc34)n2N)cc(OC)c1 [Decoy871] | Inactive (Decoy) |
| CS(=O)(=O)SCCNC(=O)[C@H](N)CCCCNC(=O)CCCCCNC(=O)CCCC[C@@H]1SC[C@H]2NC(=O)N[C@H]12 [Decoy749] | Inactive (Decoy) |
| O=c1ccn([C@@H]2O[C@H](CO[P@](=O)(O)O[P@@](=O)(O)O[C@H]3OC[C@@H](O)[C@H](O)[C@H]3O)[C@@H](O)[C@H]2O)c(=O)[nH]1 [Decoy865] | Inactive (Decoy) |
| CCOc1cccc(/C=N/NC(=O)CSc2nnc(-c3cc(OC)c(OC)c(OC)c3)n2-c2ccccc2)c1O [Decoy798] | Inactive (Decoy) |
| COc1cc(C(=O)O)ccc1O[C@@H]1O[C@H](COC(=O)c2ccc(O)c(O)c2)[C@@H](O)[C@H](O)[C@H]1O [Decoy842] | Inactive (Decoy) |
| CCOc1ccc(NC(=O)CSC2=C(C#N)[C@@H](c3ccco3)C(C(=O)Nc3cc(OC)ccc3OC)=C(C)N2)cc1 [Decoy933] | Inactive (Decoy) |
| CCOc1ccc2[nH]c(=O)c(CN(CCc3ccc(OC)c(OC)c3)Cc3nnnn3C3CCCC3)cc2c1 [Decoy799] | Inactive (Decoy) |
| CCOC(=O)C1=C(C)NC(=O)N[C@H]1c1ccc(OCC(=O)N/N=C/c2ccc(SC)cc2)c(OC)c1 [Decoy818] | Inactive (Decoy) |
| CCN(CC)Cc1c(C(=O)N/N=C/c2cc(Cl)ccc2OCc2c(F)cccc2Cl)nnn1-c1nonc1N [Decoy844] | Inactive (Decoy) |
| CCOC(=O)c1c(C)[nH]c(C(=O)OCC(=O)NCC(=O)Nc2ccc(F)c(F)c2F)c1C [Decoy761] | Inactive (Decoy) |
| CCCCN/N=C(C(=O)OC)/C(C(=O)OC)=C(\O)C(=O)Nc1nc2ccc([N+](=O)[O-])cc2s1 [Decoy925] | Inactive (Decoy) |
| C/C=C(/C[C@H](O)N(C=O)Cc1cnc(C)nc1N)SS/C(=C/C)C[C@@H](O)N(C=O)Cc1cnc(C)nc1N [Decoy935] | Inactive (Decoy) |
| O=S1(=O)CC[C@@H](NCOC(COCN[C@H]2CCS(=O)(=O)C2)COCN[C@H]2CCS(=O)(=O)C2)C1 [Decoy819] | Inactive (Decoy) |
| CCCCN(C(=O)c1cccc(S(=O)(=O)N2CCN(C)CC2)c1)c1c(N)n(CCCC)c(=O)[nH]c1=O [Decoy864] | Inactive (Decoy) |
| COc1ccc2cc([C@H](c3nnnn3C(C)(C)C)N(CCc3ccc(OC)c(OC)c3)Cc3ccccc3)c(=O)[nH]c2c1 [Decoy776] | Inactive (Decoy) |
| COc1cc(C(=O)NNC(=S)NC(=O)COc2ccc(Br)cc2C)cc(OC)c1OC [Decoy856] | Inactive (Decoy) |
| C=C1NC(=O)[C@@H]([C@@H](C)O)NC(=O)[C@@H](C(C)C)NC(=O)[C@@H](C)[C@@H](O)[C@H](C)[C@@H](CCCCCCCCC)OC1=O [Decoy732] | Inactive (Decoy) |
| O=C(O)CN(CC(=O)O)Cc1cc2c(cc1O)Oc1cc(O)c(CN(CC(=O)O)CC(=O)O)cc1C21OC(=O)c2ccccc21 [Decoy739] | Inactive (Decoy) |

Same assay, conditions: sheet 6QHD_actives_decoys; known STAT3 actives of the retrospective screening set; ref ChEMBL / literature; cited from earlier work

| Compound | Type (known STAT3 active) |
| --- | --- |
| CSCC[C@H](NC(=O)[C@H](C)NC(=O)[C@H](CCC(N)=O)NC(=O)[C@@H]1CCCN1C(=O)[C@@H](CCCN=C(N)N)NC(=O)[C@@H](Cc1ccc(OP(=O)(O)O)cc1)NC(C)=O)C(N)=O [CHEMBL345419] (Ac-[d(pY)][dR]PQAM-NH2) | Active |
| CC(C)C[C@H](NC(=O)/C=C/c1ccc(OP(=O)(O)O)cc1)C(=O)N1CCC[C@H]1C(=O)NCCOC(N)=O [CHEMBL576590] | Active |
| NC(=O)CC[C@H](NC(=O)[C@@H]1Cc2cccc3c2N1C(=O)[C@@H](NC(=O)c1cc2cc(OP(=O)(O)O)ccc2[nH]1)CC3)C(=O)NCc1ccccc1 [CHEMBL452194] | Active |
| CC(C)C[C@H](NC(=O)[C@H](Cc1ccc(OP(=O)(O)O)cc1)NC(=O)CCc1ccccc1)C(=O)N1CCC[C@H]1C(=O)N[C@@H](CCC(N)=O)C(=O)N[C@H](C(N)=O)[C@@H](C)O [CHEMBL197844] (Hydrocinnamoyl-[pY]LPQT-NH2) | Active |
| CC(=O)OC[C@H](CCC(N)=O)NC(=O)[C@@H]1[C@@H]2C[C@@H]2CN1C(=O)[C@H](CC(C)C)NC(=O)/C=C/c1ccc(OP(=O)(O)O)cc1 [CHEMBL583726] | Active |
| NC(=O)CC[C@H](NC(=O)[C@@H]1Cc2cccc3c2N1C(=O)[C@@H](NC(=O)/C=C/c1ccc(OP(=O)(O)O)cc1)CC3)C(=O)NCc1ccccc1 [CHEMBL449547] | Active |
| CC(=O)N[C@@H](Cc1ccc(OP(=O)(O)O)cc1)C(=O)N[C@@H](CC(C)C)C(=O)N1CCC[C@H]1C(=O)N[C@@H](CCC(N)=O)C(N)=O [CHEMBL194516] (Ac-[pY]LPQ-NH2) | Active |

Same assay, conditions: sheet 6QHD_actives_decoys; retrospective screening set for STAT3 SH2 domain (PDB 6QHD); […]; ref DUD-E; cited from earlier work

| Compound | Type |
| --- | --- |
| COc1cc(/C=N\NC(=O)N/N=C/c2cc(OC)c(O)c([N+](=O)[O-])c2)cc([N+](=O)[O-])c1O [Decoy599] | Inactive (Decoy) |
| C[C@@H](O)CC(=O)SCCNC(=O)CCNC(=O)[C@@H](O)C(C)(C)CO[P@](=O)(O)O[P@](=O)(O)OC[C@H]1O[C@@H](n2cnc3c(N)ncnc32)[C@@H](O)[C@H]1OP(=O)(O)O [Decoy404] | Inactive (Decoy) |
| CCOC(=O)[C@@](NC(=O)Nc1ccc(S(=O)(=O)Nc2nnc(SCC)s2)cc1)(c1ccc(F)cc1)C(F)(F)F [Decoy418] | Inactive (Decoy) |

Same assay, conditions: sheet 6QHD_actives_decoys; retrospective screening set for STAT3 SH2 domain (PDB 6QHD); decoys generated with DUD-E and presumed inactive, not tested; ref DUD-E; cited from earlier work

| Compound | Type |
| --- | --- |
| CC(=O)OC[C@H]1O[C@@H](O[C@@]2(CO)O[C@@H](CO)[C@@H](OC(C)=O)[C@H]2OC(C)=O)[C@@H](OC(C)=O)[C@@H](OC(C)=O)[C@@H]1O [Decoy643] | Inactive (Decoy) |
| NCCCCCCNc1nc2c(N)ncnc2n1[C@H]1O[C@@H](CO[P@](=O)(O)O[P@](=O)(O)OP(=O)(O)O)[C@@H](O)[C@H]1O [Decoy384] | Inactive (Decoy) |
| COC(=O)c1ccc(C(=O)OC)c(NC(=O)c2ccc(C(=O)Nc3cc(C(=O)OC)ccc3C(=O)OC)cc2)c1 [Decoy335] | Inactive (Decoy) |
| COCCN1C(=O)c2cc(C(=O)Nc3ccc(OC)c(OC)c3)ccc2[C@H]1Nc1ccc(OC)c(OC)c1 [Decoy447] | Inactive (Decoy) |
| CC1(C)CC[C@]2(C(=O)O[C@@H]3O[C@H](CO)[C@@H](O)[C@H](O)[C@H]3O)[C@H](O)C[C@]3(C)C(=CC[C@@H]4[C@@]5(C)CC[C@H](O[C@@H]6OC[C@H](O)[C@H](O)[C@H]6O)[C@@](C)(CO)[C@@H]5CC[C@]43C)[C@@H]2C1 [Decoy535] | Inactive (Decoy) |
| COC(=O)[C@@H]1O[C@@H](O[C@@H]2CC[C@@]3(C)[C@@H](CC[C@@H]4[C@H]5CC[C@@H](/C(COC(C)=O)=N/NC(N)=O)[C@@]5(C)CC(=O)[C@H]43)C2)[C@H](OC(C)=O)[C@@H](OC(C)=O)[C@@H]1OC(C)=O [Decoy622] | Inactive (Decoy) |
| C[C@H](CCC(=O)NCC(=O)NCCS(=O)(=O)O)[C@H]1CC[C@H]2[C@@H]3[C@H](O)C[C@@H]4C[C@H](O)CC[C@]4(C)[C@H]3C[C@H](O)[C@]12C [Decoy532] | Inactive (Decoy) |
| CC(=O)N[C@@H]1[C@H]([C@H](O)[C@H](O)CO)O[C@@](O[C@H]2[C@@H](O)[C@@H](O[C@@H]([C@@H](O[C@@H]3O[C@@H](C)[C@H](O)[C@H](O)[C@@H]3O)[C@H](O)C=O)[C@H](O)CO)O[C@@H](CO)[C@H]2O)(C(=O)O)C[C@@H]1O [Decoy382] | Inactive (Decoy) |
| CCOC(=O)c1ccc(NC(=O)C/C(C)=N/NC(=O)C(=O)Nc2cccc(Cl)c2C)cc1 [Decoy358] | Inactive (Decoy) |
| CC(=O)N[C@H]1[C@H]([C@H](O)[C@H](O)CO)O[C@](O[C@H]2[C@@H](O)[C@@H](CO)O[C@@H](O[C@H]3[C@H](O)[C@@H](O)[C@H](NC(C)=O)O[C@@H]3CO)[C@@H]2O)(C(=O)O)C[C@@H]1O [Decoy607] | Inactive (Decoy) |
| C=C(CO[C@@H]1[C@H](O)[C@H](CO)O[C@@H](OCC#Cc2ccc(O)c(C(=O)OC)c2)[C@H]1NC(C)=O)C(=O)OCC [Decoy506] | Inactive (Decoy) |
| CC(=O)N[C@@H]1[C@@H](O)[C@H](O[C@@H]2O[C@H](CO)[C@H](O)[C@H](O[C@]3(C(=O)O)C[C@H](O)[C@@H](NC(C)=O)[C@H]([C@H](O)[C@H](O)CO)O3)[C@H]2O)[C@@H](CO)O[C@@H]1O [Decoy638] | Inactive (Decoy) |
| COCCOc1ccc(C(F)(F)F)cc1NC(=O)CSc1nnc(-c2ccc(OC)cc2)o1 [Decoy488] | Inactive (Decoy) |
| CC(=O)O[C@H]1[C@H](O)[C@H]([C@@](C)(O)CC[C@@H](O)C(C)(C)O)[C@@]2(C)CC[C@@]34C[C@@]35CC[C@H](O[C@@H]3OC[C@@H](O)[C@H](O)[C@H]3O)C(C)(C)[C@@H]5CC[C@H]4[C@]12C [Decoy347] | Inactive (Decoy) |
| COc1cc([C@@H]2C(C(=O)c3ccc4c(c3)OCCO4)=C(O)C(=O)N2CCCn2ccnc2)cc(Br)c1O [Decoy647] | Inactive (Decoy) |
| C[N+]1=C(/C=C/C=C2/N(CCCCC(=O)NCCOCCOCCNCCO[C@H]3O[C@@H](CO)[C@@H](O)[C@H](O)[C@@H]3O)c3ccccc3C2(C)C)C(C)(C)c2ccccc21 [Decoy588] | Inactive (Decoy) |
| CCOC(=O)c1sc(N/N=C(\C(=O)Nc2cccc(OC)c2)C(=O)c2ccc([N+](=O)[O-])cc2)c(C(=O)OCC)c1C [Decoy517] | Inactive (Decoy) |
| COc1ccc([N+](=O)[O-])cc1NC(=S)N[C@@H](NC(=O)c1ccco1)C(Cl)(Cl)Cl [Decoy690] | Inactive (Decoy) |
